Measurements taken from ChEMBL document CHEMBL1133604, “1-imidazolyl(alkyl)-substituted di- and tetrahydroquinolines and analogues: syntheses and evaluation of dual inhibitors of thromboxane A(2) synthase and aromatase” (J Med Chem, 2000).
Activity calls are given as the source filed them. The rule behind the calls is not given here.

Tests used:
[1] = target: T1, Thromboxane-A synthase (Homo sapiens, UniProt P24557); type: tissue-based, Blood
T1 sequence (P24557 whole entry): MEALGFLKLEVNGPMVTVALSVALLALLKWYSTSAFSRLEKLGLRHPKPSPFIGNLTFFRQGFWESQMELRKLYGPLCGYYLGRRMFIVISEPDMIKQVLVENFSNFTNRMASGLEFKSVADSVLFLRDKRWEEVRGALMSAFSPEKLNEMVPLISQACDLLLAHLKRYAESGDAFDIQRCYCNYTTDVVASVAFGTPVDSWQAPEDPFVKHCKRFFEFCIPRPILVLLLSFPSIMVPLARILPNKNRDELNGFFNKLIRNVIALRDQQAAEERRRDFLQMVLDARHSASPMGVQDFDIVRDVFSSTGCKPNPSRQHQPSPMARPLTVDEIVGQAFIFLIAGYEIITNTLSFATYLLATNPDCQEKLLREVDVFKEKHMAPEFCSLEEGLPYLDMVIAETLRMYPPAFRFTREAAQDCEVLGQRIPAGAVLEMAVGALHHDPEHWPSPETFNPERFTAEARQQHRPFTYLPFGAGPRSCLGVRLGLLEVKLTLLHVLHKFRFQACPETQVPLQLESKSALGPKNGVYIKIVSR

[2] = target: T2, Steroid 17-alpha-hydroxylase/17,20 lyase (Rattus norvegicus, UniProt P11715)
T2 sequence (P11715 whole entry): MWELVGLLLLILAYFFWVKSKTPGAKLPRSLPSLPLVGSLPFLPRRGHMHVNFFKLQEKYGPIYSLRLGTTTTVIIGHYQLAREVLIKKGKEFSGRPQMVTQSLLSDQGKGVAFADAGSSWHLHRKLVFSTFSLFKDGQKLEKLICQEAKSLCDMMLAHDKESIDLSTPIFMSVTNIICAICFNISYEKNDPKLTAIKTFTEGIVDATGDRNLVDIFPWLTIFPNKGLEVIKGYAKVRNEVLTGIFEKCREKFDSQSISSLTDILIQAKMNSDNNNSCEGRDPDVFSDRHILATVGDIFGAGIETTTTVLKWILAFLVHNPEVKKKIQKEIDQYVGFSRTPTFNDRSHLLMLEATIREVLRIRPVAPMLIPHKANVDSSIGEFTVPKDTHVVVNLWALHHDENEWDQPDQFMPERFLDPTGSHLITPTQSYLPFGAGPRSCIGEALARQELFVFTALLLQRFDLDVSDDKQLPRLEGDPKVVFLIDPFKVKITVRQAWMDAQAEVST

[3] = target: T2, Steroid 17-alpha-hydroxylase/17,20 lyase; remark: listed apart in the source
[4] = species on record: Bos taurus
[5] = cells; type: functional; conditions: Bos taurus
[6] = species on record: Bos taurus; remark: listed apart in the source
[7] = target: T1, Thromboxane-A synthase

Row | IC50 [1] [µM] | inhibition at 125 µM [3] [%] | Compound | also measured
1 | 1.7 | – | C(/Cn1ccnc1)=C1/CCCc2sccc21 | –
2 | 3.4 | > 80 | c1ccc2c(c1)CCCC2CCn1ccnc1 (stereo unspecified) | IC50 [2]: 20 µM
3 | 0.68 | 79 | C1=C(CCCn2ccnc2)c2cccnc2CC1 | –
4 | 1.5 | 69 | C1=C(Cn2ccnc2)c2cccnc2CC1 | –
5 | 5.4 | – | c1cc2ccc(Cn3ccnc3)cc2cn1 | –
6 | 0.29 | 21 | C1=C(CCn2ccnc2)c2cccnc2CC1 | NI [4]: inactive; IC50 [5]: 0.173 µM; NI [6]: inactive
7 | 4.1 | – | C(/Cn1ccnc1)=C1\CCCc2occc21 | –
8 | – | – | O=C(OC1CCCc2ncccc21)n1ccnc1 (stereo unspecified) | IC50 [7]: 1.6 µM
9 | 1.26 | – | C(/Cn1ccnc1)=C1\CCCc2sccc21 | –
10 | 1.2 | 22 | c1cc(CCn2ccnc2)c2cccnc2c1 | –
11 | 1.01 | – | c1cn(CCC2CCCc3occc32)cn1 (stereo unspecified) | –
12 | 5.3 | – | c1cc(CCn2ccnc2)c2ccsc2c1 | –
13 | 0.63 | 49 | c1cnc2c(c1)C(CCn1ccnc1)CCC2 (stereo unspecified) | IC50 [2]: 125 µM
14 | 1.23 | – | c1cn(CCC2CCCc3sccc32)cn1 (stereo unspecified) | –
15 | – | 14 | c1cnc2c(c1)C(n1ccnc1)CCC2 (stereo unspecified) | –
16 | 2 | 11 | c1cnc2c(c1)C(Cn1ccnc1)CCC2 (stereo unspecified) | –
17 | 3.55 | – | C(/Cn1ccnc1)=C1/CCCc2occc21 | –
18 | 2.3 | 59 | c1cnc2c(c1)C(CCCn1ccnc1)CCC2 (stereo unspecified) | –
